Test results reported in PMC11876601 (Molecular Systems Biology, 2025).
Where two headings read alike, the source gives them in different places.

Tests used:
[1] = tested on: 13 PDAC cell lines; experiment: Phenotypic drug combination viability screen (ATPlite, 72 h), cell line panel; assay type: cell-based, human; conditions: for number of cell lines with synergy with GEM: of 13 cell lines, Bliss model; for EC50: Homo sapiens
[2] = tested on: p-sites in DNA-damaged AsPC-1 cells; experiment: decryptM dose-resolved phosphoproteomics of ATRi in GEM-pre-treated cells; assay type: cell-based, human; conditions: for EC50: Homo sapiens, ASPC1
Method: Cell culture medium was replaced 24 h after seeding. […] For time point 0, AsPC-1 cells were treated with a vehicle and lysed immediately. The final DMSO concentration in all experiments was 0.2%.
Briefly, cells were washed twice with PBS and lysed in SDS lysis buffer (2% SDS in 40 mM Tris-HCl, pH 7.6), followed by sonication for 10 min (30 s on/30 s off) using a Bioruptor (Diagenode). For DNA hydrolysis, samples were boiled at 95 °C for 10 min and incubated with 2% trifluoroacetic acid (TFA) for 1 min, before the reaction was quenched using 4% N-methylmorpholine. Lysate was cleared by centrifugation at 11,000 × g for 5 min and protein concentration was determined using the Pierce BCA Protein Assay Kit (Thermo Scientific).
Using 70% ethanol, samples were then precipitated on beads, followed by washing thrice with 80% ethanol and once with 100% acetonitrile. Subsequently, proteins were reduced and alkylated using 10 mM TCEP, 50 mM chloroacetamide, and 2 mM CaCl2 in 100 mM EPPS/NaOH, pH 8.5 for 1 h at 37 °C, followed by tryptic digestion at 37 °C for 16 h. Peptides were acidified with 1% TFA and desalted on Chromabond HLB plates (30 µm particle size, 10 mg capacity, Machery-Nagel), using 0.1% TFA for equilibration and sample loading, and 0.1% TFA in 70% acetonitrile for peptide elution. Recovered peptides were freeze-dried by vacuum-centrifugation and stored at −20 °C.
Depending on the experiment, samples were either labeled with TMT-11plex (decryptM), TMT-10plex (non-decryptM, quadruplicates), or TMTpro reagent (time-series; all Thermo Scientific). Therefore, dried peptides were reconstituted in 15 µl 100 mM EPPS, pH 8.5 and each treatment condition was labeled with one channel of the respective TMT reagent (5 µl of 25 µg/µl reagent, Appendix Tables S4–S6). The reaction was incubated for 1 h at 23 °C and subsequently quenched with 0.4% hydroxylamine. Then, samples were pooled, acidified with 1% formic acid, and freeze-dried by vacuum-centrifugation. Labeled peptide pools were desalted on C18 Sep-Pak cartridges (37–55 µm particle size, 50 mg capacity, Waters), using 0.1% formic acid as equilibration solvent, and 0.1% formic acid in 60% acetonitrile was used as elution solvent. Eluted peptides were freeze-dried and stored at −20 °C until further use.
Basic reversed-phase (bRP) fractionation of peptides was performed on a Vanquish HPLC (Thermo Scientific). In short, dried peptides were reconstituted in 200 µl 25 mM ammonium bicarbonate, pH 8.0 and directly injected onto a Waters BEH130 XBridge C18 column (3.5 µm, 4.6 × 250 mm). […] Using an automated fraction collector, 96 fractions were collected between min 7 and 55 after injection. Fractions were acidified with 1% formic acid and pooled to 48 fractions, before they were freeze-dried and stored at −20 °C.
Immobilized metal ion affinity chromatography (IMAC) enrichment of phosphorylated peptides was performed on the Bravo automated liquid handling platform using AssayMAP Fe(III)-NTA cartridges (Agilent). In brief, the 48 dried peptide fractions were reconstituted in 0.1% TFA in 80% acetonitrile and further pooled to 12 fractions (200 µl final volume per well). The phosphopeptide enrichment protocol embedded in the Agilent AssayMAP Bravo Protein Sample Prep Workbench v2.0 software was run. Thereby, the cartridges were first primed with 150 μl 0.1% TFA in acetonitrile at 300 μl/min, and equilibrated with 150 μl 0.1% TFA in 80% acetonitrile at 10 μl/min. Then, pooled fractions were loaded at 5 µl/min and further washed three times with 150 μl 0.1% TFA in 80% acetonitrile at 50 μl/min. Enriched peptides were eluted with 60 μl 1% ammonium hydroxide at 5 μl/min.

## C[C@]12O[C@H](C[C@]1(O)CO)n1c3ccccc3c3c4c(c5c6ccccc6n2c5c31)CNC4=O [Lestaurtinib]
[1]
  number of cell lines with synergy with GEM: 5 cell lines

## Nc1ccn([C@@H]2O[C@H](CO)[C@@H](O)C2(F)F)c(=O)n1 [GEM, Gemcitabine]
[1]; read-out: EC50,GEM
  EC50: < 10 nM
[1]; read-out: EC50
  EC50: ≥ 1 nM

## COc1cc(N2CCC(N3CCN(C)CC3)CC2)ccc1Nc1ncc(Cl)c(Nc2ccccc2P(C)(C)=O)n1 [Brigatinib]
[1]
  number of cell lines with synergy with GEM: 5 cell lines

## C[C@@H]1COCCN1c1cc(C2([S@](C)(=N)=O)CC2)nc(-c2cc[nH]c3nccc2-3)n1 [Ceralasertib]
[2]; AASDHPPT-pS258
  Log2 PTM response (GEM+ATRi vs. GEM): -0.9
[2]; BRCA1-pS1239
  Log2 PTM response (GEM+ATRi vs. GEM): -1.1
[2]; BRD8-pS621
  Log2 PTM response (GEM+ATRi vs. GEM): -1.7
[2]; CDKN2AIP-pS198
  Log2 PTM response (GEM+ATRi vs. GEM): -1.6
[2]; CHEK1-pS317
  Log2 PTM response (GEM+ATRi vs. GEM): -2
[2]; CHEK1-pS468
  Log2 PTM response (GEM+ATRi vs. GEM): -3.8
[2]; DHX9-pS321
  Log2 PTM response (GEM+ATRi vs. GEM): -1.6
[2]; EXO1-pS714
  Log2 PTM response (GEM+ATRi vs. GEM): -0.7
[2]; FANCD2-pS319
  Log2 PTM response (GEM+ATRi vs. GEM): -1.3
[2]; HDGF-pS103
  Log2 PTM response (GEM+ATRi vs. GEM): -1.4
[2]; HMGA1-pS9
  Log2 PTM response (GEM+ATRi vs. GEM): -2
[2]; HMGA1-pS36;S44
  Log2 PTM response (GEM+ATRi vs. GEM): -1.5
[2]; HMGA1-pS44
  Log2 PTM response (GEM+ATRi vs. GEM): -1.7
[2]; HSPA4-pS552
  Log2 PTM response (GEM+ATRi vs. GEM): -1.1
[2]; HTATSF1-pS481
  Log2 PTM response (GEM+ATRi vs. GEM): -0.6
[2]; approximate, from density plot Fig. 4C (peer review file), read-out: EC50 of the majority of pSQ/pTQ sites
  EC50: ~100 nM
[2]; approximate, from density plot Fig. 4C (peer review file), read-out: pEC50 of the majority of pSQ/pTQ sites (converted)
  EC50: ~100 nM
[2]; p-site dose-response in GEM-pre-treated cells, read-out: EC50, RALY S176
  EC50: 151 nM
[2]; p-site dose-response in GEM-pre-treated cells, read-out: pEC50, RALY S176 (converted)
  EC50: 151 nM
[2]; read-out: median EC50 across all drug-regulated pSQ/pTQ-sites
  EC50: 154 nM
[2]; LRRC42-pS385
  Log2 PTM response (GEM+ATRi vs. GEM): -2.5
[2]; NBN-pS397
  Log2 PTM response (GEM+ATRi vs. GEM): -1.2
[2]; NBN-pS615
  Log2 PTM response (GEM+ATRi vs. GEM): -0.5
[2]; NSUN5-pS432
  Log2 PTM response (GEM+ATRi vs. GEM): -3
[2]; PELP1-pS1033
  Log2 PTM response (GEM+ATRi vs. GEM): -1.3
[2]; PHF14-pS294
  Log2 PTM response (GEM+ATRi vs. GEM): -1.2
[2]; PPM1G-pS201
  Log2 PTM response (GEM+ATRi vs. GEM): -1.9
[2]; PPP6R3-pS825
  Log2 PTM response (GEM+ATRi vs. GEM): -1.6
[2]; PSMD4-pS266
  Log2 PTM response (GEM+ATRi vs. GEM): -1.3
[2]; RAD18-pS368
  Log2 PTM response (GEM+ATRi vs. GEM): -1.2
[2]; RIF1-pS1873
  Log2 PTM response (GEM+ATRi vs. GEM): -0.6
[2]; SNRPA-pS115
  Log2 PTM response (GEM+ATRi vs. GEM): -1.4
[2]; TCEA1-pS100;S97
  Log2 PTM response (GEM+ATRi vs. GEM): -2.1
[2]; TCEB3-pS251
  Log2 PTM response (GEM+ATRi vs. GEM): -1.6
[2]; THAP4-pS186
  Log2 PTM response (GEM+ATRi vs. GEM): -1.4
[2]; TOPBP1-pS1504
  Log2 PTM response (GEM+ATRi vs. GEM): -1.5
[2]; TSEN34-pS136
  Log2 PTM response (GEM+ATRi vs. GEM): -1.1
[2]; UHRF1-pS393
  Log2 PTM response (GEM+ATRi vs. GEM): -1.4
[2]; UIMC1-pS171
  Log2 PTM response (GEM+ATRi vs. GEM): -2.1
[2]; ZC3H14-pS135
  Log2 PTM response (GEM+ATRi vs. GEM): -1.3
[2]; classified by CurveCurator
  ATRi Regulation (Curve), RALY S176: down
[2]; source data 4B (p-site not named), 1 µM GEM + ATRi 1 nM
  PTM response (norm. to 1 µM GEM): 1.20
[2]; source data 4B (p-site not named), 1 µM GEM + ATRi 3 nM
  PTM response (norm. to 1 µM GEM): 0.93
[2]; source data 4B (p-site not named), 1 µM GEM + ATRi 30 nM
  PTM response (norm. to 1 µM GEM): 0.96
[2]; source data 4B (p-site not named), 1 µM GEM + ATRi 100 nM
  PTM response (norm. to 1 µM GEM): 0.97
[2]; source data 4B (p-site not named), 1 µM GEM + ATRi 300 nM
  PTM response (norm. to 1 µM GEM): 0.85
[2]; source data 4B (p-site not named), 1 µM GEM + ATRi 1000 nM
  PTM response (norm. to 1 µM GEM): 0.52
[2]; source data 4B (p-site not named), 1 µM GEM + ATRi 3000 nM
  PTM response (norm. to 1 µM GEM): 0.35
[2]; source data 4B (p-site not named), 1 µM GEM + ATRi 10000 nM
  PTM response (norm. to 1 µM GEM): 0.27
[2]; source data 5B (p-site not named), 1 µM GEM + ATRi 3 nM
  PTM response (norm. to 1 µM GEM): 0.78
[2]; source data 5B (p-site not named), 1 µM GEM + ATRi 10 nM
  PTM response (norm. to 1 µM GEM): 0.81
[2]; source data 5B (p-site not named), 1 µM GEM + ATRi 30 nM
  PTM response (norm. to 1 µM GEM): 0.67
[2]; source data 5B (p-site not named), 1 µM GEM + ATRi 100 nM
  PTM response (norm. to 1 µM GEM): 0.51
[2]; source data 5B (p-site not named), 1 µM GEM + ATRi 300 nM
  PTM response (norm. to 1 µM GEM): 0.34
[2]; source data 5B (p-site not named), 1 µM GEM + ATRi 1000 nM
  PTM response (norm. to 1 µM GEM): 0.16
[2]; source data 5B (p-site not named), 1 µM GEM + ATRi 3000 nM
  PTM response (norm. to 1 µM GEM): 0.11
[2]; source data 5B (p-site not named), 1 µM GEM + ATRi 10000 nM
  PTM response (norm. to 1 µM GEM): 0.09
